Paper PMC10207986, “Computational high-throughput screening and in vitro approaches identify CB-006-3; A novel PI3K-BRAF^V600E dual targeted inhibitor against melanoma” (Oncology Research, 2022)

How the values were obtained:
Format in all cases: biochemical
BRAF^V600E (B-Raf^V600E) = biological target: T1, BRAF^V600E (B-Raf^V600E) (Homo sapiens, UniProt P15056, V600E); assay: luminescence kinase assay (Kinase-Glo Max); details: 500 µM ATP, Raf substrate, 45 min, 30°C
T1 construct: enzyme of BPS Bioscience B-Raf V600E assay kit
T1 sequence (P15056 2-766 V600E): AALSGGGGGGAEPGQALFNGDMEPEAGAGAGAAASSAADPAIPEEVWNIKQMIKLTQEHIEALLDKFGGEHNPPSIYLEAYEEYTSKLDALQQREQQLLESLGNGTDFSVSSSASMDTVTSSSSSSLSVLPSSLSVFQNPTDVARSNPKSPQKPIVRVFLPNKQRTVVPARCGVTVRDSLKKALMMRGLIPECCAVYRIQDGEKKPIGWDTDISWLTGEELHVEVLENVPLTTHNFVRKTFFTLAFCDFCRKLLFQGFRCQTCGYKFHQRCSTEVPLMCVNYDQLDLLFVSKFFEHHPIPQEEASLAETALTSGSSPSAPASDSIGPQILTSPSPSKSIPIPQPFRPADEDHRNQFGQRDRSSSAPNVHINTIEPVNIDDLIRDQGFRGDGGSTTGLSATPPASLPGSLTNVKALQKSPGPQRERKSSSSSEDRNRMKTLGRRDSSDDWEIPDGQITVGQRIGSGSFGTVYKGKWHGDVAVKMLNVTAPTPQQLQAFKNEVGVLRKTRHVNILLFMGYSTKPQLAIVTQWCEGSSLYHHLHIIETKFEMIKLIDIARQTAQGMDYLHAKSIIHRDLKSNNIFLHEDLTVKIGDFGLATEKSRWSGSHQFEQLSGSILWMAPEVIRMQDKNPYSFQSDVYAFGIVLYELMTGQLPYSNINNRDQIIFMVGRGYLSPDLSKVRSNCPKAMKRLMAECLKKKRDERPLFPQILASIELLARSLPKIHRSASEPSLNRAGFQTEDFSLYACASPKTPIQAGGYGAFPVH

PI3KCD (PI3K delta) = biological target: T2, PI3KCD (PI3K delta) (Homo sapiens, UniProt O00329); assay: HTRF PI3K kinase assay; details: PIP2 substrate, ATP; 10 min pre-incubation, 30 min, room temperature
T2 construct: gene PIK3CD; enzyme used with Merck Millipore PI3K HTRF kit; with Phosphatidylinositol 3-kinase regulatory subunit alpha
T2 sequence (O00329 whole entry): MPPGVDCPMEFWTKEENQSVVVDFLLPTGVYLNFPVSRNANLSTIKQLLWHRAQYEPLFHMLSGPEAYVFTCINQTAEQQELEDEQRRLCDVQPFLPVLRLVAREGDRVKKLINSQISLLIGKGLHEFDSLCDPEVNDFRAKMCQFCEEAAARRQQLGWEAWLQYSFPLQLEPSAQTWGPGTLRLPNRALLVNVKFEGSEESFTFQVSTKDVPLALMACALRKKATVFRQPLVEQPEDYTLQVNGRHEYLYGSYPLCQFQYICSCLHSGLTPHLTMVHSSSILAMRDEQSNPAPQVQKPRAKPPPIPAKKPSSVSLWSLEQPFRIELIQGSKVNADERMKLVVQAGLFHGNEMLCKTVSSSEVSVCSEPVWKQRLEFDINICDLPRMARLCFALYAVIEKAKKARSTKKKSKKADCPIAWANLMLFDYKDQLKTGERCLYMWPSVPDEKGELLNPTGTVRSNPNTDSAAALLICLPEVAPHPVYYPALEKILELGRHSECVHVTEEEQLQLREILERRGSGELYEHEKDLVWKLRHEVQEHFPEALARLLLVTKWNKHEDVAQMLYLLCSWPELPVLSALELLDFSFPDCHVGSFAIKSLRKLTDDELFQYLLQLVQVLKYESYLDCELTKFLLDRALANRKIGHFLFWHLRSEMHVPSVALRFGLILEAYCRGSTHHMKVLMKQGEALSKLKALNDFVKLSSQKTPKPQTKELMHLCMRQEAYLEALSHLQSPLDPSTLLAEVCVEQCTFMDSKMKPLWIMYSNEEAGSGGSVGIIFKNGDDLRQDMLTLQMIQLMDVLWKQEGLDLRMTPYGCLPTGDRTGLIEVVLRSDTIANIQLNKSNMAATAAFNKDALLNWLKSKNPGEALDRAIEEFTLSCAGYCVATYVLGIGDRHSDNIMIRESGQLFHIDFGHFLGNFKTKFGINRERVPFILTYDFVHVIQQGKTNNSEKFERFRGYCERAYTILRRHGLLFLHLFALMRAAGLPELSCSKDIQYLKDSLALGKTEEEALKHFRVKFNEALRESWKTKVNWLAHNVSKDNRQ
T2 sequence (P27986 2-724 partner): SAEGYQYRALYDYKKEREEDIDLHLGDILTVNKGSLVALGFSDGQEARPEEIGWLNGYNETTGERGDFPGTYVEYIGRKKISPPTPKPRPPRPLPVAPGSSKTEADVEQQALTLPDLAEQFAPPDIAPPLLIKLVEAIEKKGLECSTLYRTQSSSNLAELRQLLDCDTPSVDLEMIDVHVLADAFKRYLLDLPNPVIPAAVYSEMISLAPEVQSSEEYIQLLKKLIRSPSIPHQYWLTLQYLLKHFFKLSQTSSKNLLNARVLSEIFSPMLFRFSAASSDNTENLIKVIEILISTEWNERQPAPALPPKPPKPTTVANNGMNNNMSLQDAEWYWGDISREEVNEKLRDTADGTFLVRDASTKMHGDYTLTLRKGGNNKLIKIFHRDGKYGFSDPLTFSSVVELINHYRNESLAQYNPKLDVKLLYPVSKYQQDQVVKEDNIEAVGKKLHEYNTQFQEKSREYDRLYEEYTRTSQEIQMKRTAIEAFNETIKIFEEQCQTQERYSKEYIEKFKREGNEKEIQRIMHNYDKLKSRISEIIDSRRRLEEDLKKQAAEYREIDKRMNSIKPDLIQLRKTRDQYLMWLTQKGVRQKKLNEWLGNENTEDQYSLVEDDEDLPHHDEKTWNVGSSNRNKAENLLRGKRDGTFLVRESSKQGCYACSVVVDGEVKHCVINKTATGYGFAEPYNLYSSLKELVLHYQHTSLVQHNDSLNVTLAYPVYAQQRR

PI3KCG (PI3K gamma) = biological target: T3, PI3KCG (PI3K gamma) (Homo sapiens, UniProt P48736); assay: HTRF PI3K kinase assay; details: PIP2 substrate, ATP; 10 min pre-incubation, 30 min, room temperature
T3 construct: gene PIK3CG; enzyme used with Merck Millipore PI3K HTRF kit
T3 sequence (P48736 whole entry): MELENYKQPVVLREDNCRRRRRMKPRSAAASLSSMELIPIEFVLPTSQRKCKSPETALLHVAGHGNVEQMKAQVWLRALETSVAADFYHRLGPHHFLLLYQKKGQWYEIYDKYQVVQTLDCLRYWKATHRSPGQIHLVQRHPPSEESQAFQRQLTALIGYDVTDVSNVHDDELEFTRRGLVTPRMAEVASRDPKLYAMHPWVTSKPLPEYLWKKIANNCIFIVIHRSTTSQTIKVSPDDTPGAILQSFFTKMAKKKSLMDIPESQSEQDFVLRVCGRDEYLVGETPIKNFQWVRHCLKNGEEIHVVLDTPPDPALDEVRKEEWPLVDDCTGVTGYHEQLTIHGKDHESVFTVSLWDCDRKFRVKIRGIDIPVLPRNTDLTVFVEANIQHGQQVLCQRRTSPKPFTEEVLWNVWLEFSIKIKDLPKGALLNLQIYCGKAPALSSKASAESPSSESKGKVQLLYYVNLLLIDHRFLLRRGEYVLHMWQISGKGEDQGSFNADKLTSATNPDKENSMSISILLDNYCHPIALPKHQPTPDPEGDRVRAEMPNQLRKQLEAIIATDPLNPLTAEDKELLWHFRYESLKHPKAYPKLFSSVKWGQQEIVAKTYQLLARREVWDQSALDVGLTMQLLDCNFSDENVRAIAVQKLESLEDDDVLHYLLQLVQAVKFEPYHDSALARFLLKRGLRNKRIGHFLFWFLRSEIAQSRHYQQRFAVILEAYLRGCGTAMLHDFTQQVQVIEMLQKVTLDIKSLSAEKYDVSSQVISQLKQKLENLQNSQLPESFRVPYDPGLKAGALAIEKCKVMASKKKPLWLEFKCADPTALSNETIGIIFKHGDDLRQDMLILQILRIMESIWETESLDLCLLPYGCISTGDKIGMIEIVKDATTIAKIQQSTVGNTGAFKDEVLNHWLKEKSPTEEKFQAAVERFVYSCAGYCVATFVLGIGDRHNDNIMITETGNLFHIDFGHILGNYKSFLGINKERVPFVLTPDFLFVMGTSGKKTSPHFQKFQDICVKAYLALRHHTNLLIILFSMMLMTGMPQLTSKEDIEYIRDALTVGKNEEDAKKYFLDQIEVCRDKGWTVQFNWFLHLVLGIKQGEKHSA

IC50 (BRAF^V600E (B-Raf^V600E)): 70.8 nM | IC50 (PI3KCD (PI3K delta)): 160 nM | IC50 (PI3KCG (PI3K gamma)): 75.8 nM
Compound: Cc1cc(C)c(CC(=O)N2C[C@@H]3CC(=O)NCCN(C)C(=O)c4cccn(c4=O)Cc4cn(nn4)[C@@H]3C2)c(C)c1 (relative stereo) [CB-006-3, rel-(17aS,20aS)-19-(mesitylacetyl)-12-methyl-12,13,14,15,17,17a,18,19,20,20a-decahydro-6,10-methano-1,4-methenopyrrolo[3,4-r] [1,2,3,6,12,15]hexaazacyclononadecine-11,16,21-trione]
